Results from patent publication EP0181129B1, “N6-substituted deoxyribose analogs of adenosines” (WARNER-LAMBERT COMPANY, priority 1984, dated 1986).
Where “and” joins values, the source holds several entries; their conditions need not be identical. Identical values can stand only once.

Tests used:
adenosine A2 receptor = biological target: T1, adenosine A2 receptor (Rattus norvegicus, UniProt P30543); assay: Adenosine Receptor Binding - A2 Receptor Affinity (RBA2), [3H]NECA displacement; details: 4 nM [3H]NECA with 50 nM N6-cyclopentyladenosine, rat striatal membranes, 60 minutes at 25°C; read-out: Receptor Binding RBA—2
T1 construct: Brains were thawed and then kept on ice while the striata were dissected out; tissue Pel-Freez (Rogers, Arkansas); host or cells: rat striatum, membranes
T1 sequence (P30543 whole entry): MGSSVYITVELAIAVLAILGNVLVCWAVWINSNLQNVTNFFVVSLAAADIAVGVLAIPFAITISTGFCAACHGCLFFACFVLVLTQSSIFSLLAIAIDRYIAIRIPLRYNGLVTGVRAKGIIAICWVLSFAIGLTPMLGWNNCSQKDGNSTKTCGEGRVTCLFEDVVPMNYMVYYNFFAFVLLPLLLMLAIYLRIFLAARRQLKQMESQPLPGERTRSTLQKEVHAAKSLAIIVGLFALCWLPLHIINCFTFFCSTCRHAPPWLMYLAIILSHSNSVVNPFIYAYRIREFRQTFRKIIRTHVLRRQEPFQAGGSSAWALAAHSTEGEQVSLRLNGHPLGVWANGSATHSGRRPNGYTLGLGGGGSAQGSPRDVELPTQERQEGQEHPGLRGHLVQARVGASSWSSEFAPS
Protocol: Brains from 200-500 g mixed sex Sprague-Dawley rats were purchased from Pel-Freez (Rogers, Arkansas). Fresh brains from male Long-Evans hooded rats (Blue Spruce Farms, Altamont, NY) gave essentially indentical results. Brains were thawed and then kept on ice while the striata were dissected out. Striata were disrupted in 10 vol of ice-cold 50 mM Tris.HCI (pH 7.7 at 25°C, pH 8.26 at 5°C) (Tris) for 30 seconds in a Polytron PT―10 (Brinkmann) at setting 5. The suspension was centrifuged at 50,000 xg for ten minutes, the supernatant discarded, the pellet resuspended in 10 vol ice-cold Tris as above, recentrifuged, resuspended at 1 g/5 ml, and stored in plastic vials at -70°C (stable for at least six months). When needed, tissue was thawed at room temperature, disrupted in a Polytron, and kept on ice until used.
All incubations were for 60 minutes at 25°C in 12x75 mm glass tubes containing 1 ml Tris with 5 mg original tissue weight of rat weight of rat striatal membranes, 4 nM [^3H]-N-ethyl adenosine-5'-carboxamide ([^3H]NECA), 50 nM N^6-cyclopentyladenosine (to eliminate A1 receptor binding), 10 mM MgCl2, 0.1 units/ml, of adenosine deaminase and 1% dimethylsulfoxide. N^6-Cyclopentyladenosine was dissolved at 10 mM in 0.02 N HCI and diluted in Tris. Stock solutions and dilutions of N^6-cyclopentyladenosine could be stored at -20°C for several months. Test compounds were dissolved at 10 mM in dimethylsulfoxide or the same day as the experiment, and diluted in dimethylsulfoxide to 100x the final incubation concentration. Control incubations received an equal volume (10 µl) of dimethylsulfoxide; the resulting concentration of dimethylsulfoxide had no effect on binding. [^3H]NECA was diluted to 40 nM in Tris. The membrane suspension (5 mg/0.79 ml) contained sufficient MgCl2 and adenosine deaminase to give 10 mM and 0.1 units/ml, respectively, final concentration in the incubation. […] After all additions, the rack of tubes was vortexed, and the tubes were then incubated for 60 min at 25°C in a shaking water bath. The rack of tubes was vortexed an additonal time halfway through the incubation.
Incubations were terminated by filtration through 2.4 cm GF/B filters under reduced pressure. Each tube was filtered as follows: the contents of the tube were poured onto the filter, 4 ml of ice-cold Tris were added to the tube and the contents poured onto the filter, and the filter was washed twice with 4 ml of ice-cold Tris. The filtration was complete in about twelve seconds. Filters were put in scintillation vials, 8 ml of Formula 947 scintillation fluid added, and the vials left overnight, shaken, and counted in a liquid scintillation counter at 40% efficiency.
Nonspecific binding was defined as binding in the presence of […] N^6-cyclopentyladenosine, and specific binding was defined as total binding minus nonspecific binding. The IC50 was calculated by weighted nonlinear least squares curve-fitting to the mass-action equation. [formula] • where Y is cpm bound T is cpm total binding without drug S is cpm specific binding without drug D is the concentration of drug • and K is the IC50 of the drug Weighting factors were calculated under the assumption that the standard deviation was proportional to the predicted value of Y. Nonspecific binding was treated as a very large (infinite) concentration of drug in the computer analysis.

Swiss-Webster male mice = assay: Mouse Activity and Screen Test Procedure (MAST); type: in vivo; details: for Inhibition of Mouse Locomotor Activity: one hour prior to testing; for Screen Test Failure: percent of mice falling off the screen
From the text: The compounds of the invention are new chemical substances which are useful as pharmaceutical agents for the treatment of psychoses. The antipsychotic activity of representative compounds of the invention was established by the Mouse Activity and Screen Test Procedure (MAST) described below.
Nine unfasted Swiss-Webster male mice weighing 20-30 g are equally divided into three groups for each drug dose to be tested. That is, data for each dose level was generated by three separate groups of three mice each.
A minimum of three dose levels (10, 30, and 100 mg/kg) are tested for each drug. Treatments are administered intraperitoneally one hour prior to testing. All dosages are calculated as parent compound and given in volumes of 10 ml/kg. Compounds are dissolved or suspended in 0.2% Methocel. Control animals are injected with Methocel.
A two part testing procedure is started one hour post injection. First, the screen test (ST) is performed (see Pharmac. Biochem. Behav. 6, 351-353, 1977). Briefly this test consists of placing mice on individual wire screens which are then rotated 180 degrees at the start of a 60 second observation period. The number of mice falling off the inverted screen is recorded.
Immediately following the screen test, the final phase of testing is initiated by placing each group of three mice in one actophotometer (Life Sciences, 22,1067-1076,1978). The actophotometer consists of a cylindrical chamber whose center is occupied by another cylinder which contains the illumination for six photocells located on the perimeter of the chamber. Six light-beam interruptions equal one count. Locomotor activity is recorded by computer at ten minutes intervals for 60 minutes.
The data obtained from the screen test are expressed as percent of mice falling off the screen. Data derived from locomotor activity of drug treated mice are compared to the activity of vehicle treated animals and are expressed as percent inhibition of spontaneous locomotion. All percentages reported for inhibition of locomotion (LI) are based upon data accumulated for one hour. Both phases of testing are graded: A=60-100%; C=31-59%; and N=0-30%. An overall dose rating is obtained by the following criteria:
LAD refers to the lowest dose at which an A rating is achieved. […] Utilizing this procedure, an overall dose rating of A was obtained for the noted compound at the indicated dose. The compounds are identified in the Examples.

[1] = Dose 10 mg/kg intraperitoneally
[2] = Dose 30 mg/kg intraperitoneally
[3] = Dose 0.3 mg/kg intraperitoneally

IC50 (adenosine A2 receptor) [µM]	Screen Test Failure (Swiss-Webster male mice; Dose 3 mg/kg intraperitoneally) [%]	Screen Test Failure (Swiss-Webster male mice; [1]) [%]	Screen Test Failure (Swiss-Webster male mice; [2]) [%]	Screen Test Failure (Swiss-Webster male mice; [3]) [%]	Screen Test Failure (Swiss-Webster male mice; Dose 1 mg/kg intraperitoneally) [%]	Structure (SMILES)	Inhibition of Mouse Locomotor Activity (Swiss-Webster male mice; Dose 3 mg/kg intraperitoneally) [%]	Inhibition of Mouse Locomotor Activity (Swiss-Webster male mice; [1]) [%]	Inhibition of Mouse Locomotor Activity (Swiss-Webster male mice; [2]) [%]	Inhibition of Mouse Locomotor Activity (Swiss-Webster male mice; [3]) [%]	Inhibition of Mouse Locomotor Activity (Swiss-Webster male mice; Dose 1 mg/kg intraperitoneally, 1 mg/kg)
0.323	0	0	0	–	–	C[C@H]1O[C@@H](n2cnc3c(NCc4cccc5ccccc45)ncnc32)[C@H](O)[C@@H]1O [Example 20, N^6-α-Naphthylmethyl-5' -deoxyadenosine]	−1	49	81	–	–
3.04	0	0	0	0	0	O[C@@H]1[C@H](O)[C@@H](CCl)O[C@H]1n1cnc2c(NC3CCc4ccccc43)ncnc21 (stereo partly drawn) [Example 23, (R)-N^6(1-Indanyl)-5'-deoxy-5'-chloroadenosine]	48	76	81	−2	0% and 7%

Structure (SMILES)	IC50 (adenosine A2 receptor) [µM]	Screen Test Failure (Swiss-Webster male mice; Dose 3 mg/kg intraperitoneally) [%]	Screen Test Failure (Swiss-Webster male mice; [1]) [%]	Screen Test Failure (Swiss-Webster male mice; [2]) [%]	Screen Test Failure (Swiss-Webster male mice; [3]) [%]	Screen Test Failure (Swiss-Webster male mice; Dose 1 mg/kg intraperitoneally) [%]	Inhibition of Mouse Locomotor Activity (Swiss-Webster male mice; Dose 3 mg/kg intraperitoneally) [%]	Inhibition of Mouse Locomotor Activity (Swiss-Webster male mice; [1]) [%]	Inhibition of Mouse Locomotor Activity (Swiss-Webster male mice; [2]) [%]	Inhibition of Mouse Locomotor Activity (Swiss-Webster male mice; [3]) [%]	Inhibition of Mouse Locomotor Activity (Swiss-Webster male mice; Dose 1 mg/kg intraperitoneally, 1 mg/kg)
C[C@H]1O[C@@H](n2cnc3c(NC4CCCc5ccccc54)ncnc32)[C@H](O)[C@@H]1O (stereo partly shown) [Example 19, N^6-1-Tetralinyl-5' -deoxyadenosine]	71.3	11	0	0	–	–	36	55	83	–	–
